# Laboratory results: patent US6503449B1, “Process for the control of microbial contamination in water-based solids suspensions” (Ciba Specialty Chemicals Corporation, priority 1998, dated 2003)
# System: Pseudomonas putida
# Test: Sonication (20 kHz horn probe) of Pigment Red 23 dispersion with biocide, streaking on Nutrient Agar plates
# Format: cell-based
# Parameters: key: −: no bacterial colonies detected; +: light contamination (10^0 and 10^3 cfu/ml); ++: moderate contamination(10^3-10^5 cfu/ml); +++: heavy contamination(>10^5 cfu/ml)
# From the text: A mixture of Pigment Red 23, available from Ciba Specialty Chemicals(UK) Ltd., 215.5 parts, Emulan OG (RTM) (35% solution in water), available from BASF, 153.7 parts, tributyl phosphate, available from Albright & Wilson, 2 parts, and water, 128.8 parts, are dispersed by re-circulation through a Bachofen KDL200 bead-mill until colouristic properties are within specification of UNISPERSE (RTM) Red RBS-PI, available from Ciba Specialty Chemicals(UK) Ltd., and adjusted to pH 8.0-8.5 with 20% sodium hydroxide solution. This material is identified as containing the Gram negative bacterium, Pseudomonas putida. 50 millilitre aliquots of this dispersion containing levels of glutaraldehyde (pentane-1,5-dialdehyde), available as the trade product Protectol GDA form BASF or Ucarcide from Union Carbide, between 0 parts per million (ppm) and 2000 ppm are sonicated using a Branson MSE sonicator with a 19 mm horn probe resonating at 20 kHz with an amplitude of 6 microns. Sonication is undertaken in a 100 millilitre glass beaker, diameter 38 mm, with magnetic flea agitator and cooled in a water/ice bath to maintain temperature at 28-32° C. Bacterial growth in each sample is assessed at 5 minute intervals by streaking each dispersion on to Nutrient Agar(NA) plates and incubating the plates for a minimum of 48 hours at 30° C. The plates are then examined for bacterial colonies and expressed according to the following notation:
# The resistance of the pigment dispersion produced according to the process of the invention to further bacterial growth is recorded by continued observation of the samples of Table 1 over a period of up to 90 days. […]
smiles,measurement,setting,value
"O=CCCCC=O [glutaraldehyde, pentane-1,5-dialdehyde]","further bacterial growth, samples of Table 1","10 ppm, Time 1 (days) after sonication",−
same,"further bacterial growth, samples of Table 1","10 ppm, Time 2 (days) after sonication",−
same,"further bacterial growth, samples of Table 1","10 ppm, Time 3 (days) after sonication",−
same,"further bacterial growth, samples of Table 1","10 ppm, Time 7 (days) after sonication",−
same,"further bacterial growth, samples of Table 1","10 ppm, Time 14 (days) after sonication",−
same,"further bacterial growth, samples of Table 1","10 ppm, Time 28 (days) after sonication",−
same,"further bacterial growth, samples of Table 1","10 ppm, Time 90 (days) after sonication",−
same,bacterial colonies on Nutrient Agar,"10 ppm, sonicated 0 mins.",+++ (heavy contamination(>10^5 cfu/ml))
same,bacterial colonies on Nutrient Agar,"10 ppm, sonicated 5 mins.",+++ (heavy contamination(>10^5 cfu/ml))
same,bacterial colonies on Nutrient Agar,"10 ppm, sonicated 10 mins.",+++ (heavy contamination(>10^5 cfu/ml))
same,bacterial colonies on Nutrient Agar,"10 ppm, sonicated 15 mins.",++ (moderate contamination(10^3-10^5 cfu/ml))
same,bacterial colonies on Nutrient Agar,"10 ppm, sonicated 20 mins.",+ (light contamination (10^0 and 10^3 cfu/ml))
same,bacterial colonies on Nutrient Agar,"10 ppm, sonicated 25 mins.",+ (light contamination (10^0 and 10^3 cfu/ml))
same,bacterial colonies on Nutrient Agar,"10 ppm, sonicated 30 mins.",−
same,"further bacterial growth, samples of Table 1","25 ppm, Time 1 (days) after sonication",−
same,"further bacterial growth, samples of Table 1","25 ppm, Time 2 (days) after sonication",−
same,"further bacterial growth, samples of Table 1","25 ppm, Time 3 (days) after sonication",−
same,"further bacterial growth, samples of Table 1","25 ppm, Time 7 (days) after sonication",−
same,"further bacterial growth, samples of Table 1","25 ppm, Time 14 (days) after sonication",−
same,"further bacterial growth, samples of Table 1","25 ppm, Time 28 (days) after sonication",−
same,"further bacterial growth, samples of Table 1","25 ppm, Time 90 (days) after sonication",−
same,bacterial colonies on Nutrient Agar,"25 ppm, sonicated 0 mins.",+++ (heavy contamination(>10^5 cfu/ml))
same,bacterial colonies on Nutrient Agar,"25 ppm, sonicated 5 mins.",++ (moderate contamination(10^3-10^5 cfu/ml))
same,bacterial colonies on Nutrient Agar,"25 ppm, sonicated 10 mins.",−
same,bacterial colonies on Nutrient Agar,"25 ppm, sonicated 15 mins.",−
same,bacterial colonies on Nutrient Agar,"25 ppm, sonicated 20 mins.",−
same,bacterial colonies on Nutrient Agar,"25 ppm, sonicated 25 mins.",−
same,bacterial colonies on Nutrient Agar,"25 ppm, sonicated 30 mins.",−
same,"further bacterial growth, samples of Table 1","50 ppm, Time 1 (days) after sonication",−
same,"further bacterial growth, samples of Table 1","50 ppm, Time 2 (days) after sonication",−
same,"further bacterial growth, samples of Table 1","50 ppm, Time 3 (days) after sonication",−
same,"further bacterial growth, samples of Table 1","50 ppm, Time 7 (days) after sonication",−
same,"further bacterial growth, samples of Table 1","50 ppm, Time 14 (days) after sonication",−
same,"further bacterial growth, samples of Table 1","50 ppm, Time 28 (days) after sonication",−
same,"further bacterial growth, samples of Table 1","50 ppm, Time 90 (days) after sonication",−
same,bacterial colonies on Nutrient Agar,"50 ppm, sonicated 0 mins.",+++ (heavy contamination(>10^5 cfu/ml))
same,bacterial colonies on Nutrient Agar,"50 ppm, sonicated 5 mins.",++ (moderate contamination(10^3-10^5 cfu/ml))
same,bacterial colonies on Nutrient Agar,"50 ppm, sonicated 10 mins.",−
same,bacterial colonies on Nutrient Agar,"50 ppm, sonicated 15 mins.",++ (moderate contamination(10^3-10^5 cfu/ml))
same,bacterial colonies on Nutrient Agar,"50 ppm, sonicated 20 mins.",−
same,bacterial colonies on Nutrient Agar,"50 ppm, sonicated 25 mins.",−
same,bacterial colonies on Nutrient Agar,"50 ppm, sonicated 30 mins.",−
same,"further bacterial growth, samples of Table 1","75 ppm, Time 1 (days) after sonication",−
same,"further bacterial growth, samples of Table 1","75 ppm, Time 2 (days) after sonication",−
same,"further bacterial growth, samples of Table 1","75 ppm, Time 3 (days) after sonication",−
same,"further bacterial growth, samples of Table 1","75 ppm, Time 7 (days) after sonication",−
same,"further bacterial growth, samples of Table 1","75 ppm, Time 14 (days) after sonication",−
same,"further bacterial growth, samples of Table 1","75 ppm, Time 28 (days) after sonication",−
same,"further bacterial growth, samples of Table 1","75 ppm, Time 90 (days) after sonication",−
same,bacterial colonies on Nutrient Agar,"75 ppm, sonicated 0 mins.",+++ (heavy contamination(>10^5 cfu/ml))
same,bacterial colonies on Nutrient Agar,"75 ppm, sonicated 5 mins.",−
same,bacterial colonies on Nutrient Agar,"75 ppm, sonicated 10 mins.",−
same,bacterial colonies on Nutrient Agar,"75 ppm, sonicated 15 mins.",−
same,bacterial colonies on Nutrient Agar,"75 ppm, sonicated 20 mins.",−
same,bacterial colonies on Nutrient Agar,"75 ppm, sonicated 25 mins.",−
same,bacterial colonies on Nutrient Agar,"75 ppm, sonicated 30 mins.",−
same,"further bacterial growth, samples of Table 1","100 ppm, Time 1 (days) after sonication",−
same,"further bacterial growth, samples of Table 1","100 ppm, Time 2 (days) after sonication",−
same,"further bacterial growth, samples of Table 1","100 ppm, Time 3 (days) after sonication",−
same,"further bacterial growth, samples of Table 1","100 ppm, Time 7 (days) after sonication",−
same,"further bacterial growth, samples of Table 1","100 ppm, Time 14 (days) after sonication",−
same,"further bacterial growth, samples of Table 1","100 ppm, Time 28 (days) after sonication",−
same,"further bacterial growth, samples of Table 1","100 ppm, Time 90 (days) after sonication",−
same,bacterial colonies on Nutrient Agar,"100 ppm, sonicated 0 mins.",+++ (heavy contamination(>10^5 cfu/ml))
same,bacterial colonies on Nutrient Agar,"100 ppm, sonicated 5 mins.",+ (light contamination (10^0 and 10^3 cfu/ml))
same,bacterial colonies on Nutrient Agar,"100 ppm, sonicated 10 mins.",+ (light contamination (10^0 and 10^3 cfu/ml))
same,bacterial colonies on Nutrient Agar,"100 ppm, sonicated 15 mins.",−
same,bacterial colonies on Nutrient Agar,"100 ppm, sonicated 20 mins.",−
same,bacterial colonies on Nutrient Agar,"100 ppm, sonicated 25 mins.",−
same,bacterial colonies on Nutrient Agar,"100 ppm, sonicated 30 mins.",−
same,"further bacterial growth, samples of Table 1","150 ppm, Time 1 (days) after sonication",−
same,"further bacterial growth, samples of Table 1","150 ppm, Time 2 (days) after sonication",−
same,"further bacterial growth, samples of Table 1","150 ppm, Time 3 (days) after sonication",−
same,"further bacterial growth, samples of Table 1","150 ppm, Time 7 (days) after sonication",−
same,"further bacterial growth, samples of Table 1","150 ppm, Time 14 (days) after sonication",−
same,"further bacterial growth, samples of Table 1","150 ppm, Time 28 (days) after sonication",−
same,"further bacterial growth, samples of Table 1","150 ppm, Time 90 (days) after sonication",−
same,bacterial colonies on Nutrient Agar,"150 ppm, sonicated 0 mins.",+++ (heavy contamination(>10^5 cfu/ml))
same,bacterial colonies on Nutrient Agar,"150 ppm, sonicated 5 mins.",−
same,bacterial colonies on Nutrient Agar,"150 ppm, sonicated 10 mins.",−
same,bacterial colonies on Nutrient Agar,"150 ppm, sonicated 15 mins.",−
same,bacterial colonies on Nutrient Agar,"150 ppm, sonicated 20 mins.",−
same,bacterial colonies on Nutrient Agar,"150 ppm, sonicated 25 mins.",−
same,bacterial colonies on Nutrient Agar,"150 ppm, sonicated 30 mins.",−
same,"further bacterial growth, samples of Table 1","500 ppm, Time 1 (days) after sonication",−
same,"further bacterial growth, samples of Table 1","500 ppm, Time 2 (days) after sonication",−
same,"further bacterial growth, samples of Table 1","500 ppm, Time 3 (days) after sonication",−
same,"further bacterial growth, samples of Table 1","500 ppm, Time 7 (days) after sonication",−
same,"further bacterial growth, samples of Table 1","500 ppm, Time 14 (days) after sonication",−
same,"further bacterial growth, samples of Table 1","500 ppm, Time 28 (days) after sonication",−
same,"further bacterial growth, samples of Table 1","500 ppm, Time 90 (days) after sonication",−
same,bacterial colonies on Nutrient Agar,"500 ppm, sonicated 0 mins.",+++ (heavy contamination(>10^5 cfu/ml))
same,bacterial colonies on Nutrient Agar,"500 ppm, sonicated 5 mins.",−
same,bacterial colonies on Nutrient Agar,"500 ppm, sonicated 10 mins.",−
same,bacterial colonies on Nutrient Agar,"500 ppm, sonicated 15 mins.",−
same,bacterial colonies on Nutrient Agar,"500 ppm, sonicated 20 mins.",−
same,bacterial colonies on Nutrient Agar,"500 ppm, sonicated 25 mins.",−
same,bacterial colonies on Nutrient Agar,"500 ppm, sonicated 30 mins.",−
same,"further bacterial growth, samples of Table 1","1000 ppm, Time 1 (days) after sonication",−
same,"further bacterial growth, samples of Table 1","1000 ppm, Time 2 (days) after sonication",−
same,"further bacterial growth, samples of Table 1","1000 ppm, Time 3 (days) after sonication",−
same,"further bacterial growth, samples of Table 1","1000 ppm, Time 7 (days) after sonication",−
same,"further bacterial growth, samples of Table 1","1000 ppm, Time 14 (days) after sonication",−
same,"further bacterial growth, samples of Table 1","1000 ppm, Time 28 (days) after sonication",−
same,"further bacterial growth, samples of Table 1","1000 ppm, Time 90 (days) after sonication",−
same,bacterial colonies on Nutrient Agar,"1000 ppm, sonicated 0 mins.",+++ (heavy contamination(>10^5 cfu/ml))
same,bacterial colonies on Nutrient Agar,"1000 ppm, sonicated 5 mins.",−
same,bacterial colonies on Nutrient Agar,"1000 ppm, sonicated 10 mins.",−
same,bacterial colonies on Nutrient Agar,"1000 ppm, sonicated 15 mins.",−
same,bacterial colonies on Nutrient Agar,"1000 ppm, sonicated 20 mins.",−
same,bacterial colonies on Nutrient Agar,"1000 ppm, sonicated 25 mins.",−
same,bacterial colonies on Nutrient Agar,"1000 ppm, sonicated 30 mins.",−
same,"further bacterial growth, samples of Table 1","2000 ppm, Time 1 (days) after sonication",−
same,"further bacterial growth, samples of Table 1","2000 ppm, Time 2 (days) after sonication",−
same,"further bacterial growth, samples of Table 1","2000 ppm, Time 3 (days) after sonication",−
same,"further bacterial growth, samples of Table 1","2000 ppm, Time 7 (days) after sonication",−
same,"further bacterial growth, samples of Table 1","2000 ppm, Time 14 (days) after sonication",−
same,"further bacterial growth, samples of Table 1","2000 ppm, Time 28 (days) after sonication",−
same,"further bacterial growth, samples of Table 1","2000 ppm, Time 90 (days) after sonication",−
same,bacterial colonies on Nutrient Agar,"2000 ppm, sonicated 0 mins.",+++ (heavy contamination(>10^5 cfu/ml))
same,bacterial colonies on Nutrient Agar,"2000 ppm, sonicated 5 mins.",−
same,bacterial colonies on Nutrient Agar,"2000 ppm, sonicated 10 mins.",−
same,bacterial colonies on Nutrient Agar,"2000 ppm, sonicated 15 mins.",−
same,bacterial colonies on Nutrient Agar,"2000 ppm, sonicated 20 mins.",−
same,bacterial colonies on Nutrient Agar,"2000 ppm, sonicated 25 mins.",−
same,bacterial colonies on Nutrient Agar,"2000 ppm, sonicated 30 mins.",−
